The values that follow are results of earlier work, collected in patent US20040116329A1, “Inhibition of proteasomes to prevent restenosis” (priority 2004, published 2004).

In data set [1] the test system is apoptosis. To be noted: through stabilization of proteins critical for cell cycle progression and control of apoptosis.
The conditions of data set [2]: given orally.
Data set [3] deals with SMC. To be noted: in vitro.
Data set [4] relates to SMC. To be noted: in vitro. The source holds these as a separate data set.
Another data set relates to neointimal accumulation. The note with it: in vivo, rat carotid artery injury model.
In data set [5] the test system is apoptosis. The note with it: biologically relevant concentrations.

Molecules are shown by their SMILES. Where two headings read alike, the source gives them in different places.

For the compound `CC(C)C[C@H](NC(=O)[C@H](Cc1ccccc1)NC(=O)c1cnccn1)B(O)O` [LDP-341], the induction of apoptosis result with apoptosis [1] is recorded as “induce apoptosis”. For the same compound, the “activity in tumor treatment in combination” value with various tumors (in combination with standard chemotherapeutic agents or radiation) was “appears very active”. The “volume of various tumors” value in the data set on various tumors (in vivo) is “effective in reducing the volume of various tumors”. For the same compound, the major side effects entry in data set [2] is “gastrointestinal in nature”.
Turning to `CC(=O)O[C@H]1C(=O)[C@@]2(C)[C@H]([C@H](OC(=O)c3ccccc3)[C@]3(O)C[C@H](OC(=O)[C@H](O)[C@@H](NC(=O)c4ccccc4)c4ccccc4)C(C)=C1C3(C)C)[C@]1(OC(C)=O)CO[C@@H]1C[C@@H]2O` [paclitaxel], the “platelet-derived growth factor-stimulated SMC migration” value with SMC [3] is “inhibited”. Also, the SMC proliferation result in the data set with SMC [4] is listed as “inhibited”. In addition, the neointimal accumulation entry with neointimal accumulation is on record as “inhibited neointimal accumulation”. Also, the induction of apoptosis entry in the data set on apoptosis [5] is recorded as “does not appear to induce apoptosis”.
